Measured values: patent US20040121968A1, “Antiangiogenesis by inhibiting protein kinase CK2 activity” (priority 2002, published 2004)
Starred links: 1 amine or outer side, 2 acyl side, 3 side chain; linkers in the order of their positions; H or OH if unused. Positions of bridges follow the written chain, without caps; N, C: chain ends. Non-standard residues stand in square brackets, D forms with d. Residues, ends and D or L forms follow the SMILES beside them. Chains are numbered I, II in the order given. Actinocin(9to1) = Cc1c2oc3c(C)ccc(C(=O)[*:1])c3nc-2c(C(=O)[*:2])c(N)c1=O; NMeV = CN[C@H](C(=O)O)C(C)C; Sar = CNCC(=O)O

Tested on: retinal endothelial cells (REC)
Test: REC angiogenic assays taken together (proliferation, secondary sprouting, migration, tube formation)
Type: cell-based, bovine
Conditions: all assays
Protocol: Human REC (from normal, diabetic and patients with DR [“DR REC”]) and bovine REC were cultured in monolayer (for migration assay) or on top of Matrigel™ where cells form capillary-like tubes. They were treated with angiogenic growth factors or their combinations (at 10 ng/ml of each factor), and seeded with or without TN-C at 10-50 μg/mL. Cell numbers were determined by MTS assay (Promega Corp., Madison, Wis.). Tube length and number, and cell migration were assessed microscopically.
Treatment of REC cultures. Duplicate REC cultures on plastic (for migration) or Matrigel™ with the same number of cells per dish are treated with previously established working concentrations of signaling inhibitors and/or select growth factor combinations. Treatments begin at the time of seeding the cells and medium is changed every other day. Single growth factors are used as negative controls since their modulation of TN-C effects was minimal. Working growth factor concentrations were as follows: VEGF, 1-50 ng/mL depending on the assay; PlGF, 100 ng/mL; FGF-2, 10-100 ng/mL; IGF-I, 25-100 ng/mL; PDGF-BB, 10-100 ng/mL. When used as combinations, each growth factor was supplied at 10 ng/mL for optimum synergy. […]

Cc1c2oc3c(C)ccc(C(=O)N[C@@H]4C(=O)N[C@H](C(C)C)C(=O)N5CCC[C@H]5C(=O)N(C)CC(=O)N(C)[C@@H](C(C)C)C(=O)O[C@@H]4C)c3nc-2c(C(=O)N[C@@H]2C(=O)N[C@H](C(C)C)C(=O)N3CCC[C@H]3C(=O)N(C)CC(=O)N(C)[C@@H](C(C)C)C(=O)O[C@@H]2C)c(N)c1=O [Actinomycin D] (I: T[dV]P[Sar][NMeV] / II: T[dV]P[Sar][NMeV]; ester I:1-I:C, II:1-II:C; linker I:N-II:N via Actinocin(9to1))
effect of inhibitor in the angiogenic assays: only minor changes
